# Test results as given in patent EP4748864A1, “POLYMERIZATION INITIATOR OR PHOTOSENSITIZER, POLYMERIZATION INITIATION COMPOSITION, AND METHOD FOR PRODUCING RESIN” (Miyoshi Oil & Fat Co., Ltd., priority 2023, dated 2025).
# Assays:
# Assay type in all cases: physicochemical
# [1] = UV absorption characteristics of component (A), UV-visible spectrophotometer; conditions: 100 µM chloroform solution, 10-mm quartz cell; for Maximum absorption wavelength Molar absorption coefficient: at the maximum absorption wavelength
# Method: A 100 µM chloroform solution of each benzophenone derivative was prepared and placed in a 10-mm quartz cell. The absorption spectrum was measured using a UV-visible spectrophotometer (V-550, manufactured by JASCO Corporation).
# [2] = Solubility of component (A) in monomers and solvents, visual observation; set-up: key to Solubility Butyl acrylate / Solubility Toluene: ⊚: dissolved transparently; ∘: dissolved almost transparently, but turbidity was observed; △: not dissolved; conditions: for Solubility Butyl acrylate: 0.1 g in butyl acrylate (1.0 g); for Solubility Butyl acrylate / Solubility Toluene: visual; for Solubility Toluene: 0.1 g in toluene (1.0 g); for solubility in butyl acrylate and toluene, result in words: 0.1 g in butyl acrylate (1.0 g) or toluene (1.0 g)
# Method: The components (A), A-1 to A-4 and A-9 to A-12, (0.1 g) was added to butyl acrylate (1.0 g) or toluene (1.0 g), and the resulting mixture was stirred. The appearance of the mixture was visually observed, and the solubility was evaluated as follows (Table 5).
# • ⊚: dissolved transparently • ∘: dissolved almost transparently, but turbidity was observed • △: not dissolved
# [3] = Heat resistance of component (A): 5% weight loss temperature by TG/DTA; conditions: heating rate 10°C/min, 25°C to 550°C
# Method: The 5% weight loss temperature of each benzophenone derivative was measured as follows. Using a simultaneous differential thermal and thermogravimetric analyzer (TG/DTA6200, manufactured by SII), heating was performed at a heating rate of 10°C/min in a measurement range of 25°C to 550°C, and the temperature at which the weight change (TG) decreased by 5% by weight was read.
Compound,Maximum absorption wavelength Wavelength [1],Molar absorption coefficient at 365 nm [1],Maximum absorption wavelength Molar absorption coefficient [1],Solubility Butyl acrylate [2],Solubility Toluene [2],5% weight loss temperature [3],"solubility in butyl acrylate and toluene, result in words [2]"
"Cc1ccc(Sc2ccc(C(=O)c3ccc(Sc4ccc(C)cc4C)cc3)cc2)c(C)c1 [A-11, 4,4'-Dithio(2,4-dimethylphenyl)benzophenone]",329 nm,3830 L/mol/cm,31640 L/mol/cm,○,○,,
"Cc1cccc(Sc2ccc(C(=O)c3ccc(Sc4cccc(C)c4)cc3)cc2)c1 [A-10, 4,4'-Dithio(3-methylphenyl)benzophenone]",328 nm,,30730 L/mol/cm,○,⊚,,
"CSc1ccc(C(=O)c2ccc(SC)cc2)cc1 [A-6, 4,4'-Bis(methylthio)benzophenone, reference compound]",323 nm,1100 L/mol/cm,25100 L/mol/cm,,,239 °C,
"Cc1ccc(C)c(Sc2ccc(C(=O)c3ccc(Sc4cc(C)ccc4C)cc3)cc2)c1 [A-12, 4,4'-Dithio(2,5-dimethylphenyl)benzophenone]",328 nm,3250 L/mol/cm,31590 L/mol/cm,○,⊚,,
"CC(C)c1ccc(Sc2ccc(C(=O)c3ccc(Sc4ccc(C(C)C)cc4)cc3)cc2)cc1 [A-3, 4,4'-Bis(p-isopropylphenylthio)benzophenone]",327 nm,,31440 L/mol/cm,⊚,⊚,,good solubility
"Cc1cc(C(C)(C)C)ccc1Sc1ccc(C(=O)c2ccc(Sc3ccc(C(C)(C)C)cc3C)cc2)cc1 [A-9, 4,4'-Dithio(4-tert-butyl-2-methylphenyl)benzophenone]",329 nm,3870 L/mol/cm,32600 L/mol/cm,⊚,⊚,,
"CC(C)(C)c1ccc(Sc2ccc(C(=O)c3ccc(Sc4ccc(C(C)(C)C)cc4)cc3)cc2)cc1 [A-4, 4,4'-Bis(p-tert-butylphenylthio)benzophenone]",328 nm,,31120 L/mol/cm,○,⊚,,good solubility
"4,4'-Ditolylthiobenzophenone [A-2]",327 nm,,31500 L/mol/cm,Δ,○,,
"CCCCCCCCSc1ccc(C(=O)c2ccc(SCCCCCCCC)cc2)cc1 [A-7, 4,4'-Bis(octylthio)benzophenone, reference compound]",326 nm,2000 L/mol/cm,24800 L/mol/cm,,,282 °C,
"Cc1ccc(Sc2ccc(C(=O)c3ccccc3)cc2)cc1 [A-5, 4-(p-Tolylthio)benzophenone, reference compound]",316 nm,700 L/mol/cm,13200 L/mol/cm,,,235 °C,
"S=C(c1ccc(-c2ccccc2)cc1)c1ccc(-c2ccccc2)cc1 [A-1, 4,4'-Diphenylthiobenzophenone]",326 nm,3900 L/mol/cm,32880 L/mol/cm,Δ,Δ,314 °C,
